From US12433864B2, “5,6-diHETE lactone for treatment of microvascular dysfunction” (MIGAL GALILEE RESEARCH INSTITUTE LTD., priority 2019, dated 2025) come the findings set out here.

For experiment [1], the system named is HUVEC. As to the kind of experiment: Calcium imaging, intracellular [Ca2+]i increase in HUVEC. Format: cell-based, human. The procedure: HUVECs were plated onto 24-well plates and grown to 70% confluence. To monitor cytosolic Ca^2+ signals, cells were loaded with fluo-3 AM (4 μmol/L; Molecular Probes) and incubated for 40 min at 37° C. in complete medium that contained […] pluronic acid. After washing twice with HEPES buffer that contained (in mmol/L) 1.25 CaCl2, 5.5 D-glucose, 10 HEPES, 5 KCl, 0.5 MgCl2, and 140 NaCl (brought to pH 7.4 with NaOH); the plates were incubated at 37° C. for 15 additional minutes prior to fluorescence imaging. Fluorescence images were acquired every 1 s over the course of 5 min in cells treated with 4α-phorbol-12, 13-didecanoate (4α-PDD; a specific TRPV4 agonist; 10 μmol/L), 5,6-diHETE ((±)5,6-dihydroxy-8Z,11Z,14Z,17Z-eicosatetraenoic acid) 1, 5 lactone (0.01-5 μmol/L) and 5,6-diHETE (hydrolytic isomer of 5,6-EEQ; 2 and 5 μmol/L). The calculated ratio between maximal intensity (F1) and basal intensity (F0) was determine for each experiment and presented as Average±SD.
To investigate the effect of 5,6-diHETE ((±)5,6-dihydroxy-8Z,11Z,14Z,17Z-eicosatetraenoic acid) lactone on cytosolic [Ca^2+]i (FIG. 1), HUVECs were exposed to graded doses of 5,6-diHETE lactone (0.01-5 μmol/L) in ethanol/HEPES buffer, and the intracellular changes in [Ca^2+] were determined by the mean of fluoresces intensity. […] No significant differences in cytosolic [Ca^2+]i levels were detected beyond 0.5 μM lactone. Above this concentration the cytosolic [Ca^2+]i levels reach saturation.
These rapid pathways result in the reduction of epoxide concentrations, and thus, in a decrease in their activity. We therefore tested the ability of the hydrolyzed form compared to the unhydrolyzed form to increase intracellular calcium (FIG. 2).

Experiment [2] concerns Human adipose arterioles (HAAs). Put plainly: Dilation of human adipose arterioles (HAAs), cannulated, video diameter measurement. Particulars: for max dilation: 10^−7 mol/L, pre-constricted with endothelin-1. The procedure: Human adipose arterioles (HAAs) were extracted from adipose tissues obtained from subjects without coronary artery disease (7 normotensives and 7 hypertensives). The HAAs (100-200 μm in diameter) were cannulated with 2 glass micropipettes in an organ chamber, and the internal diameter of arterioles was measured with a video system. Arterioles were pre-constricted with endothelin-1 (10-50 nmol/L) to reduce the passive diameter by 30-50%. Relaxation was measured in response to the increasing concentrations of 5,6-diHETE lactone (10^−4-10^−1 μmol/L). To examine the involvement of NO in the 5,6-diHETE lactone-induced dilation, relaxation responses were determined in the presence or absence of nitric oxide synthase (NOS) antagonist (100 μmol/L N[omega]-nitro-Larginine methyl ester [L-NAME]).
Endothelial cell denudation was achieved by perfusion of the vessels with pre-warmed air as previously described (H. Miura, Circ. Res. 92 (2003)). At the end of each experiment, papaverine (100 μmol/L), an endothelium-independent vasodilator, was added to determine the maximal dilation for normalization of dilator responses. Vasodilator responses are expressed as the percentage of maximal dilation, with 100% representing complete relaxation (maximal diameter).

For experiment [3], the target named is T1, KCa2.3 (SK3) calcium-activated potassium channel (human KCNN3 gene) expressed in HEK293 cells (Homo sapiens, UniProt Q9UGI6).
T1 construct: expressed in transfected cells
As to the kind of experiment: Thallium flux assay, agonist effect on SK3 channel. It counts as cell-based. The procedure:
Potassium channels genes were expressed in HEK293 or CHO cells (see Table 1). SspI or PvuI enzymes were used to linearize pcDNA3.1 plasmid (Thermo Fisher). The plasmid was stably transfected by Lonza Nucleofector. The transfection efficiency was >80% as validated by expression (western blot) and activation (patch clamp and membrane potential detection) of the channels.
Functional activity of voltage-gated potassium channels was conducted using a potassium dye (Thallium flux assay, Molecular Devices) using a Fluorescence Imaging Plate Reader (FLIPRTETRA™) instrument, according to the manufacturer's instructions. Cells were plated in 384-well black wall, flat clear bottom microtiter plates (BD Biocoat Poly-D Lysine Multiwell Cell Culture Plate) at 15,000 to 30,000 cells per well. Cells were incubated at 37° C. overnight or until cells reach sufficient density in the wells (near confluent monolayer) to use in fluorescence assays. A typical sequence is to record a baseline during the pre-incubation period (first addition of test article before stimulation), followed by activation in the stimulus buffer. For each addition, the first 60 seconds of data are acquired at the maximum rate (1 sample/second) and for the remaining 9-19 minutes (depending on the recording time of each addition); data are sampled every 5 seconds.
Accordingly, the objective of this study was to evaluate the agonist effects in vitro of the 5,6-diHETE lactone on two cloned human channels stably expressed in HEK-293 or CHO cells. The assay was performed with a thallium flux assay (FLIPR® Potassium Assay, Molecular Devices) according to the manufacturer's instructions. Briefly, cells were plated in 384-well black wall, flat clear bottom microtiter plates (BD Biocoat Poly-D-Lysine Multiwell Cell Culture Plate) at 15,000 to 30,000 cells per well. Cells were incubated at 37° C. overnight or until cells reach sufficient density in the wells (near confluent monolayer) to use in fluorescence assays. Dye-loading: Growth medium was removed and replaced with dye-loading buffer for 60 minutes at room temperature (protected from light). Agonist Effect: 5 repetitions of (5 μL) test, and vehicle or control solutions (assay buffer=0.3% DMSO) in K^+-free buffer with 5 mM Tl^+ was added to each well for ˜5 minutes. The test was 5,6-diHETE lactone (at eight concentrations: 0.05, 0.15, 0.3, 0.65, 1.25, 2.5, 5, and 10 μM, n=4). The agonist effects of the test article on the potassium channels was evaluated during this period by using a Fluorescence Imaging Plate Reader (FLIPRTETRA™) instrument.
To calculate the effect, the signal elicited in the presence of a known agonist, (1 μM A-23187 for SK3 and 10 μM NS309 for IK) with 5 mM thallium was set to 100% activation and the signal in the presence of the vehicle control (assay buffer+0.3% DMSO) was set to 0% activation. EC50 was calculated using GraphPad prism 5 software using nonlinear regression fit formula assuming a simple binding model.

As to `CCC=CCC=CCC=CCC=CCC(O)C1CCCC(=O)O1` (racemic) [5,6-diHETE lactone, 5,6 dihydroxyeicosatetraenoic acid (5,6-diHETE) lactone], in experiment [1], the “concentration beyond which cytosolic [Ca2+]i levels show no significant differences (saturation)” value stood at 0.5 µM. Further, the “lowest concentration causing a significant [Ca2+] increase” value in experiment [1] stood at 0.01 µmol/L. Besides, the “changes in cellular [Ca2+]i” value in experiment [1] (2 μmol/L) is “induced”. The EC50 in experiment [1] (Homo sapiens, Fluo4 fluorescence, 0.01-5 μmol/L, read-out: EC50 of [Ca2+]i increase (F1max/F0)) is 0.00994 µM; in experiment [3] (HEK293 cells, 100% = 1 μM A-23187, read-out: EC50, SK3 channel activation), 9.99 µM. Moreover, the max dilation is 40.9% in experiment [2] (hypertensive subjects) and 58.6% in experiment [2] (normotensive subjects). Also, in experiment [2] (hypertensive subjects, L-NAME 100 μmol/L), the “effect of L-NAME on the dilation” value was “no effect”. Besides, the “effect of mechanical denudation of the endothelial layer on induced dilation” value in experiment [2] (normotensive (healthy) arterioles) was “significantly reduced”. Moreover, the “reduction of the dilation effect by L-NAME” value in experiment [2] (normotensive subjects, L-NAME 100 μmol/L) turned out to be 50%. The “Normalized % Activation” value in experiment [3] (SK3, 0.05 μM) turned out to be 0.12%; in experiment [3] (SK3, 0.15 μM), 0.35%; in experiment [3] (SK3, 0.3 μM), 0.95%; in experiment [3] (SK3, 0.65 μM), 3.25%; in experiment [3] (SK3, 1.25 μM), 10.16%; in experiment [3] (SK3, 2.5 μM), 25.36%. Also, the “Normalized % Activation” value stood at 43.17% in experiment [3] (SK3, 5 μM) and 73.65% in experiment [3] (SK3, 10 μM).
